Article PMC4984914 (British Journal of Cancer, 2016)

Tests used:
Format in all cases: in vivo
[1] = Preclinical plasma level of cleavage product 12ADT-Asp after dosing; details: rats; any time after dosing of mipsagargin
[2] = as above; details: monkeys; any time after dosing of mipsagargin
[3] = as above; details: mice; any time after dosing of mipsagargin

Measured: Level of cleavage product 12ADT-Asp in plasma

C/C=C(/C)C(=O)O[C@H]1C(C)=C2[C@H]([C@@H]1OC(=O)CCCCCCC)[C@@](C)(OC(C)=O)C[C@H](OC(=O)CCCCCCCCCCCNC(=O)C[C@H](N)C(=O)O)[C@@]1(O)[C@H]2OC(=O)[C@@]1(C)O [12ADT-Asp]
virtually undetectable: all assays above
